This is an account of results in patent US4479951A, “1.4;3.6-Dianhydrohexitol nitrates substituted by purine bases, processes for their preparation and pharmaceutical compositions” (Dr. Willmar Schwabe GmbH & Co., priority 1980, dated 1984).

Series [1] can be described thus: acute toxicity, intravenous. To be noted: mouse, in vivo, iv; read-out: Evaluated LD50-range. It is filed as in vivo.
Another series deals with female NMRI-albino mice. As to the kind of experiment: acute toxicity, intravenous. The conditions noted are these: mouse, in vivo. It is filed as in vivo.

The structures appear in SMILES notation.

As a reminder, the LD50 is the dose expected to kill half of the subjects tested. On to `Nc1ncnc2c1ncn2[C@H]1CO[C@H]2[C@@H]1OC[C@@H]2O[N+](=O)[O-]` [1c/2c, 5-(9-Adenyl)-5-desoxy-1.4;3.6-dianhydro-L-iditol 2-nitrate], for which the LD50 at 24 h in series [1] is over 200 mg/kg. For the same compound, the Frequency of death in the series on female NMRI-albino mice was 0/6.
